Experimental data reported in US12472224B2, “Ready-to-use bivalirudin compositions” (MAIA Pharmaceuticals, Inc., priority 2019, dated 2025).

How the values were obtained:
Whole human blood = assay: Hemolysis study; type: cell-based
Method: Briefly, human whole blood was collected from a single donor (K2EDTA anticoagulant). The donor blood was analyzed for hemoglobin content in triplicate using an Advia 120 hematology analyzer. The dynamic mixing of drug infusate in human whole blood was simulated in this in vitro study by incubating the diluted test, reference and placebo items at a blood:formulation ratio of 1:0.75, corresponding to a final bivalirudin concentration of 2.14 mg/mL. Blood was mixed with either bivalirudin for injection as described herein, Angiomax®, a bivalirudin placebo, or 0.9% saline. The mixture as incubated at 37° C. (±5° C.) for 30 minutes. Negative controls containing only blood (whole blood control) or blood mixed with 0.9% saline at a blood:saline ratio of 1:0.75 (0.9% NaCl control) were also prepared. A positive control containing blood mixed 1:1 with 1% saponin was also prepared. All control tubes were incubated at 37° C. (±5° C.) for 30 minutes. […] During the incubation tubes containing the test and reference item mixed with saline were prepared to check if the test or reference item interfered with the absorbance readings. […] The percent hemolysis of each sample was calculated based on the hemoglobin content of the supernatant, expressed as a percentage of hemoglobin content of the donor sample, after correcting for dilution and interference from the sample, if any.

[1] = Toxicokinetics of bivalirudin in satellite animals of the rat study (plasma concentrations); conditions: both sexes, Sprague-Dawley, in vivo, iv, 24 hours after termination of dosing, 7 out of 23 samples, all others below 50 ng/mL, read-out: plasma bivalirudin concentration at the 24-hour timepoint
Method: The infusion rate was 2.5 mL/kg/h for all groups. A separate set of satellite animals (6/sex/group) were administered the same set of materials and used for evaluating the toxicokinetics (TK) of bivalirudin at 5 minutes and 24 hours after termination of dosing (3 animals/sex/group/timepoint). See Table 16b for group allocation. All animals were sacrificed on Day 16, one day following the end of the 14-day infusion.
Mean plasma concentrations of bivalirudin at C5 were similar in males treated with the high-dose (250 mg/kg/day) of MAIA Bivalirudin Injection or Sandoz Bivalirudin, and only slightly lower (approximately 20% lower) in the female treated with MAIA Bivalirudin than in the females treated with Sandoz Bivalirudin. However, it must be noted that data are available from just one female for the MAIA product, due to premature deaths or inability to collect blood.

Compound | % Hemolysis (Whole human blood) [%] | % hemolysis (positive control) (Whole human blood) [%] | level at 24 h [1] [ng/mL]
saponin | 100.0 ± 0.8 | 100 | 
CC[C@H](C)[C@H](NC(=O)[C@H](CCC(=O)O)NC(=O)[C@H](CCC(=O)O)NC(=O)[C@H](Cc1ccccc1)NC(=O)[C@H](CC(=O)O)NC(=O)CNC(=O)[C@H](CC(N)=O)NC(=O)CNC(=O)CNC(=O)CNC(=O)CNC(=O)[C@@H]1CCCN1C(=O)[C@H](CCCNC(=N)N)NC(=O)[C@@H]1CCCN1C(=O)[C@H](N)Cc1ccccc1)C(=O)N1CCC[C@H]1C(=O)N[C@@H](CCC(=O)O)C(=O)N[C@@H](CCC(=O)O)C(=O)N[C@@H](Cc1ccc(O)cc1)C(=O)N[C@@H](CC(C)C)C(=O)O [bivalirudin] |  |  | 50.5 to 159
